These results are taken from US20190336486A1, “METHODS FOR TREATING CANCER AND METABOLIC SYNDROME” (GLAX LLC, priority 2018, published 2019).

What all share (assay type): cell-based
The test system of test [1] is glioblastoma cell lines. Put plainly: Cell proliferation of glioblastoma cell lines (FIG. 7).
Test [2] has as its system brain CSCs. Put plainly: Cell proliferation of brain CSCs (FIG. 7).
For test [3], the system named is glioblastoma cells. Put plainly: Colony formation by glioblastoma cells (FIG. 8).
Test [4] has as its system brain CSCs. Put plainly: Colony formation by brain CSCs (FIG. 8).
For test [5], the system named is lung cancer cells (A549). In words: Cell proliferation of lung cancer cells (FIG. 9).
In test [6] the test system is human normal lung epithelial cells (Beas 2B). In words: Cell proliferation of normal lung epithelial cells (FIG. 9).
In test [7] the test system is lung cancer cells. In words: Colony formation by lung cancer cells (FIG. 10).
For test [8], the system named is colorectal CSCs. Put plainly: Cell proliferation of colorectal CSCs (FIG. 11).
The test system of test [9] is breast cancer cells. In words: Cell proliferation of breast cancer cells (FIG. 12).
In test [10] the test system is prostate cancer cells. Put plainly: Cell proliferation of prostate cancer cells (FIG. 13).

On to `Nc1nc(CC(=O)Nc2ccc(CCNC[C@H](O)c3ccccc3)cc2)cs1` [Mirabegron], for which the cell proliferation entry is “inhibits cell proliferation” in test [1]; “inhibits cell proliferation” in test [2]; “inhibits cell proliferation” in test [5]; “has no effect” in [6]; “inhibits cell proliferation” in [8]; “inhibits cell proliferation” in test [9]. The cell proliferation entry in test [10] is reported as “inhibits cell proliferation”. Further, the colony formation result in test [3], in test [4] and in test [7] was “inhibits colony formation” throughout.
